In test [1] the test system is TGF-β signaling. Kind of test: Assay for evaluating cellular inhibition of TGF-β signaling, 4T1 (SBE-luc2P) luciferase reporter. As to conditions: Mus musculus, 4T1, 4T1 (SBE-luc2P) transient pool, 0.2% FBS, 2 h pre-treatment, TGF-β1 2 ng/mL 24 h; read-out: IC50 4T1 Cell. Format: cell-based. How it is done: [Example 2] Assay for Evaluating Cellular Inhibition of TGF-β Signaling
4T1 (SBE-luc2P) transient pool that have SBE-luc2P (hygro) expression plasmid or HEK293 (SBE reporter) stable cells (BPS bioscience) were seeded at 6×10^3 cells/well or 2.5×10^4 cells/well in 96-well plate, respectively. 4T1 (SBE-luc2P) transient pool were pre-treated with novel compound synthesized in Example 1 above in 0.2% FBS at approximately 60% confluence at 37° C. in 5% CO2. Also, HEK293 (SBE reporter) stable cells were pre-treated with each test compounds of formula in 0.5% FBS at approximately 80% confluence at 37° C. in 5% CO2. After 2 hours, cells were treated with TGF-β1 (2 ng/mL) for 24 h at 37° C. in 5% CO2. Cell lysates were prepared using Luciferase Assay (Promega) according to the manufacturer's instruction, and luminescence was measured by a plate reader, Biotek Synergy H1 (Vermont, USA).
In general terms: A reporter such as luciferase makes a cellular process visible.

For test [2], the target named is T1, ALK5 kinase (Homo sapiens, UniProt P36897).
T1 sequence (P36897 34-503): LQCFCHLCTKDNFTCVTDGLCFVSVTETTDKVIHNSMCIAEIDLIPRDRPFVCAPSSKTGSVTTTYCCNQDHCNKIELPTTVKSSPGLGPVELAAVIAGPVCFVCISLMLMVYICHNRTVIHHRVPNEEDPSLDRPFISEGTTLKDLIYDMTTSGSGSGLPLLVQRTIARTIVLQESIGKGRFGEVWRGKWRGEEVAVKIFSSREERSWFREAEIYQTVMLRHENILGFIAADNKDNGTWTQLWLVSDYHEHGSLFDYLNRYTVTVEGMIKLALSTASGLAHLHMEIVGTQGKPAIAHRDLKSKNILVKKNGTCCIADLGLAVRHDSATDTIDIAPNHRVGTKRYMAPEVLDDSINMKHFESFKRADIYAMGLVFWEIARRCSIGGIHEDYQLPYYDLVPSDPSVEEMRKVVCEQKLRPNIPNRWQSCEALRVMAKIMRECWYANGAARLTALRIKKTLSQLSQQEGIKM
The test is described as follows: LanthaScreen Eu Kinase Binding Assay. As to conditions: Kinase Tracer 178, Eu-anti-GST Antibody, read-out: IC50 Enzyme. How it is done:
[Example 1] LanthaScreen Eu Kinase Binding Assay
4 μL of 4× Test Compound in 4% DMSO and 4 μL of 4× Kinase in Kinase buffer were added to wells (low volume, white 384-well plate (Greiner Cat. #784207)). The plate was shaken for 30 seconds, centrifuged for 10 seconds at 1000 rpm, and incubated at RT for 30 minutes. Then, 4 μL of 4× Eu-anti-GST Antibody and 4 μL of 4× Kinase Tracer 178 were added to the wells. The plate was shaken for 30 seconds, centrifuged for 10 seconds at 1000 rpm, and incubated at RT for 60 minutes. Fluorescence was measured by a plate reader, Biotek Synergy H1 (Vermont, USA) under the following conditions. • Excitation: 340 nm (3 nm bandpass) • Kinase tracer emission: 665 nm (10 nm bandpass) • Eu Ab emission: 615 nm (10 nm bandpass) • Emission ratio=665 nm (tracer)/615 nm (Eu Ab) • The higher the binding affinity of compound to ALK5 kinase is, the less the emission ratio is.
(In general: TR-FRET usually uses a lanthanide donor and a delayed reading to cut background.)

Where only a bound is given, the exact number is not on record here.

In the case of `O=C(O)c1cccc(Nc2cc(Oc3sc(C(F)(F)F)nc3-c3ccccc3)ccn2)c1` [A-151, 3-((4-((4-Phenyl-2-(trifluoromethyl)thiazol-5-yl)oxy)pyridin-2-yl)amino)benzoic acid], the half-maximal inhibitory concentration (IC50) (in general, the concentration that gives 50% inhibition) in test [1] is above 100 nM; in test [2], below 100 nM.

For the compound `CC(C)c1nc(-c2ccccc2)c(Oc2ccnc(Nc3ccc(C(C)(C)O)nc3)c2)s1` [A-224, 2-(5-((4-((2-Isopropyl-4-phenylthiazol-5-yl)oxy)pyridin-2-yl)amino)pyridin-2-yl)propan-2-ol], the values for the concentration for half-maximal inhibition (IC50) in test [1] and in test [2] were above 100 nM and below 100 nM, respectively.

Consider `CCc1nc(-c2ccccc2)c(Oc2ccnc(Nc3ccc(S(N)(=O)=O)cc3)c2)s1` [A-184, 4-((4-((2-Ethyl-4-phenylthiazol-5-yl)oxy)pyridin-2-yl)amino)benzenesulfonamide], for which the IC50 in test [1] is above 100 nM; in test [2], below 100 nM.

Take `NC(=O)c1ccc(Nc2cc(Oc3sc(C(F)(F)F)nc3-c3ccccc3)ccn2)cc1` [A-147, 4-((4-((4-Phenyl-2-(trifluoromethyl)thiazol-5-yl)oxy)pyridin-2-yl)amino)benzamide]: the concentration for half-maximal inhibition (IC50) in test [1] and in test [2] was below 100 nM throughout.

On to `Cc1nc(-c2ccccc2)c(Oc2ccnc(Nc3cccc(S(C)(=O)=O)c3)c2)s1` [A-70, 4-((2-Methyl-4-phenylthiazol-5-yl)oxy)-N-(3-(methylsulfonyl)phenyl)pyridin-2-amine], for which the 50% inhibitory concentration (IC50) in test [1] and in test [2] was below 100 nM in each case.

As for `CNC(=O)c1ccc(Nc2cc(Oc3sc(C4CCCC4)nc3-c3ccccc3)ccn2)nc1` [A-176, 6-((4-((2-Cyclopentyl-4-phenylthiazol-5-yl)oxy)pyridin-2-yl)amino)-N-methylnicotinamide], the IC50 in test [1] and in test [2] was above 100 nM each time.

Turning to `CNC(=O)c1ccc(Nc2cc(Oc3sc(C(F)(F)F)nc3-c3ccccc3)ccn2)nc1` [A-150, N-Methyl-6-((4-((4-phenyl-2-(trifluoromethyl)thiazol-5-yl)oxy)pyridin-2-yl)amino)nicotinamide], the IC50 in test [1] and in test [2] was below 100 nM each time.

Turning to `CC(C)c1nc(-c2ccccc2)c(Oc2ccnc(Nc3ccc(C(N)=O)cn3)c2)s1` [A-227, 6-((4-((2-Isopropyl-4-phenylthiazol-5-yl)oxy)pyridin-2-yl)amino)nicotinamide], the IC50 in test [1] and in test [2] was below 100 nM each time.

On to `CC(C)c1nc(-c2ccccc2)c(Oc2ccnc(Nc3ccc(C(=O)O)cc3)c2)s1` [A-231, 4-((4-((2-Isopropyl-4-phenylthiazol-5-yl)oxy)pyridin-2-yl)amino)benzoic acid], for which the IC50 in test [1] and in test [2] was below 100 nM each time.

As to `CC(C)c1nc(-c2ccccc2)c(Oc2ccnc(Nc3cccc(C(C)(C)O)c3)c2)s1` [A-219, 2-(3-((4-((2-Isopropyl-4-phenylthiazol-5-yl)oxy)pyridin-2-yl)amino)phenyl)propan-2-ol], the IC50 in test [1] and in test [2] was above 100 nM each time.

In the case of `Cc1nc(-c2ccccc2)c(Oc2ccnc(Nc3cccc(C(C)(C)O)c3)c2)s1` [A-61, 2-(3-((4-((2-Methyl-4-phenylthiazol-5-yl)oxy)pyridin-2-yl)amino)phenyl)propan-2-ol], the IC50 in test [1] and in test [2] was below 100 nM each time.

For the compound `O=C(O)c1ccc(Nc2cc(Oc3sc(C4CCCCC4)nc3-c3ccccc3)ccn2)cc1` [A-179, 4-((4-((2-Cyclohexyl-4-phenylthiazol-5-yl)oxy)pyridin-2-yl)amino)benzoic acid], the 50% inhibitory concentration (IC50) in test [1] and in test [2] was above 100 nM throughout.

As to `CN(C)c1nc(-c2ccccc2)c(Oc2ccnc(Nc3ccnc(C(C)(C)O)c3)c2)s1` [A-158, 2-(4-((4-((2-(Dimethylamino)-4-phenylthiazol-5-yl)oxy)pyridin-2-yl)amino)pyridin-2-yl)propan-2-ol], the half-inhibitory concentration (IC50) was above 100 nM in test [1] and below 100 nM in test [2].

For the compound `CNc1nc(-c2ccccc2)c(Oc2ccnc(Nc3ccc(S(N)(=O)=O)cc3)c2)s1` [A-53, 4-((4-((2-(Methylamino)-4-phenylthiazol-5-yl)oxy)pyridin-2-yl)amino)benzenesulfonamide], the half-maximal inhibitory concentration (IC50) in test [2] is below 100 nM.

Consider `NC(=O)c1ccc(Nc2cc(Oc3sc(NC4CC4)nc3-c3ccccc3)ccn2)cc1` [A-47, 4-((4-((2-(Cyclopropylamino)-4-phenylthiazol-5-yl)oxy)pyridin-2-yl)amino)benzamide], for which the IC50 in test [1] and in test [2] was above 100 nM throughout.

Regarding `CCc1nc(-c2cccc(C)n2)c(Oc2ccnc(Nc3cccc(S(N)(=O)=O)c3)c2)s1` [A-250, 3-((4-((2-Ethyl-4-(6-methylpyridin-2-yl)thiazol-5-yl)oxy)pyridin-2-yl)amino)benzenesulfonamide], the IC50 in test [1] and in test [2] was below 100 nM throughout.

Consider `Cc1nc(-c2ccccc2)c(Oc2ccnc(Nc3cccc(S(=O)(=O)C(F)(F)F)c3)c2)s1` [A-72, 4-((2-Methyl-4-phenylthiazol-5-yl)oxy)-N-(3-((trifluoromethyl)sulfonyl)phenyl)pyridin-2-amine], for which the IC50 in test [1] and in test [2] was above 100 nM in each case.

Regarding `Cc1cccc(-c2nc(C(F)(F)F)sc2Oc2ccnc(Nc3cccc(S(N)(=O)=O)c3)c2)n1` [A-289, 3-((4-((4-(6-Methylpyridin-2-yl)-2-(trifluoromethyl)thiazol-5-yl)oxy)pyridin-2-yl)amino)benzenesulfonamide], the IC50 in test [1] and in test [2] was below 100 nM in each case.

Turning to `NC(=O)c1cccc(Nc2cc(Oc3sc(N)nc3-c3ccccc3)ccn2)c1` [A-2, 3-((4-((2-Amino-4-phenylthiazol-5-yl)oxy)pyridin-2-yl)amino)benzamide], the half-inhibitory concentration (IC50) in test [1] and in test [2] was below 100 nM in each case.

In the case of `Cc1nc(-c2ccccc2)c(Oc2ccnc(Nc3cccc(S(N)(=O)=O)c3)c2)s1` [A-58, 3-((4-((2-Methyl-4-phenylthiazol-5-yl)oxy)pyridin-2-yl)amino)benzenesulfonamide], the IC50 in test [1] and in test [2] was below 100 nM each time.

With `NC(=O)c1ccc(Nc2cc(Oc3sc(C4CCCC4)nc3-c3ccccc3)ccn2)nc1` [A-173, 6-((4-((2-Cyclopentyl-4-phenylthiazol-5-yl)oxy)pyridin-2-yl)amino)nicotinamide], the half-inhibitory concentration (IC50) in test [2] is above 100 nM.

In the case of `CNc1nc(-c2ccccc2)c(Oc2ccnc(Nc3ccnc(C(C)(C)O)c3)c2)s1` [A-54, 2-(4-((4-((2-(Methylamino)-4-phenylthiazol-5-yl)oxy)pyridin-2-yl)amino)pyridin-2-yl)propan-2-ol], in test [2], the half-inhibitory concentration (IC50) was below 100 nM.

As to `Cc1cccc(-c2nc(N)sc2Oc2ccnc(Nc3cccc(S(N)(=O)=O)c3)c2)n1` [A-247, 3-((4-((2-Amino-4-(6-methylpyridin-2-yl)thiazol-5-yl)oxy)pyridin-2-yl)amino)benzenesulfonamide], in test [2], the concentration for half-maximal inhibition (IC50) is below 100 nM.

For the compound `NC(=O)c1cccc(Nc2cc(Oc3sc(NC4CC4)nc3-c3ccccc3)ccn2)c1` [A-46, 3-((4-((2-(Cyclopropylamino)-4-phenylthiazol-5-yl)oxy)pyridin-2-yl)amino)benzamide], in test [2], the half-inhibitory concentration (IC50) is below 100 nM.

As to `CNc1nc(-c2ccccc2)c(Oc2ccnc(Nc3ccc(C(C)(C)O)nc3)c2)s1` [A-55, 2-(5-((4-((2-(Methylamino)-4-phenylthiazol-5-yl)oxy)pyridin-2-yl)amino)pyridin-2-yl)propan-2-ol], in test [2], the IC50 is below 100 nM.

The values above are taken from patent US20250206730A1 (AUTOTELIC BIO INC., priority 2022, published 2025).
